The record followed here is patent US20050143420A1, “Methods and compositions for the treatment and management of hemoglobinopathy and anemia” (priority 2003, published 2005).

One data set has as its system BM-CD34+ progenitors. The data set can be described thus: Erythroid differentiation of expanded CD34+ cells with SCF and Epo; flow cytometry and cell counts. Type of data set: cell-based. The following applies: 6 days. The method, then:
Differentiation of bone marrow (BM) CD34^+ hematopoietic progenitor cells: BM-CD34^+ progenitors were obtained from Cambrex and cultured in Iscove's MDM with BIT 95000 (serum substitute; StemCell technologies) in the presence of growth factors. During the first 6 days CD34^+ cells were expanded with SCF (100 ng/ml), Flt3-L (100 ng/ml) and IL-3 (20 ng/ml), and then differentiated toward the erythroid lineage by culture in the presence of SCF (50 ng/ml), and Epo (2U or 4U/ml) for 6 days. To study the effect of IMiDs™, CD34^+ progenitors cells were differentiated for a period of 6 days in the presence or absence of 4-(Amino)-2-(2,6-dioxo(3-piperidyl))-isoindoline-1,3-dione or 3-(4-amino-1-oxo-1,3-dihydroisoindol-2-yl)-piperidine-2,6-dione. (FIG. 6)
Flow cytometry: Surface antigen expression was analyzed by flow cytometry (FACScan, Coulter) after 6 days of culture. Cells were processed for double staining (30 min at 4° C.) at day 6 using FITC and PE conjugated monoclonal antibodies (mAbs). Antibodies used were: CD34-PE, CD36-FITC, CD71-FITC and Glycophorin A-PE, all from BD Pharmingen (San Diego, Calif.). After 6 days of culture, cells were washed with phosphate-buffered saline (PBS), fixed with 2% paraformaldehyde, permeabilized with cytopermeafix (BD Pharmingen) and stained with HbF-PE (BD Pharmingen, San Diego, Calif.), Hbε-FITC (Cortex Biochem, San Leandro, Calif.) mAbs and HbA-FITC (Perkin Elmer) and analyzed by flow cytometry (FACScan, Coulter or FCASAria, BD Pharmingen).

Data set [1] relates to BM-CD34+ cells. Put plainly: CD34+ cell differentiation with SCF, Flt3-L, GM-CSF and TNFα; flow cytometry of erythroid markers. Type of data set: cell-based. The following applies: 0.01-100 μM, six days of culture. The method, then: (§1) BM-CD34^+ cells were obtained from Cambrex (East Rutherford, N.J.) and cultured in Iscove's MDM with BIT 95000 (StemCell Technologies, UK) in the presence of stem cell factor (SCF), Flt3-L, granulocyte macrophage-colony stimulating factor (GM-CSF) and TNFα for 6 days. To study the effect of 4-(Amino)-2-(2,6-dioxo(3-piperidyl))-isoindoline-1,3-dione on the generation of dendritic cells, CD34^+ progenitor cells were cultured with or without 4-(Amino)-2-(2,6-dioxo(3-piperidyl))-isoindoline-1,3-dione for a period of 6 days. Phenotypic characterization of the cells for erythroid markers (CD36, CD71, glycophorin A and fetal hemoglobin) was established by flow cytometry after six days of culture. Gene expression was monitored by microarray analysis at day 1, day 3 and day 6 of CD34^+ differentiation (FIG. 1).

Data set [2] can be described thus: Cardiovascular and respiratory function in anesthetized dogs. Type of data set: in vivo, Beagle dogs. The protocol:
The effects of 3-(4-amino-1-oxo-1,3-dihydro-isoindol-2-yl)-piperidine-2,6-dione on cardiovascular and respiratory function are investigated in anesthetized dogs. Two groups of Beagle dogs (2/sex/group) are used. One group receives three doses of vehicle only and the other receives three ascending doses of 3-(4-amino-1-oxo-1,3-dihydro-isoindol-2-yl)-piperidine-2,6-dione (2, 10, and 20 mg/kg). In all cases, doses of 3-(4-amino-1-oxo-1,3-dihydro-isoindol-2-yl)-piperidine-2,6-dione or vehicle are successively administered via infusion through the jugular vein separated by intervals of at least 30 minutes.

The next data set relates to CD34+ progenitor cells. Put plainly: Fetal hemoglobin induction in CD34+ cells with SCF and Epo, compared or combined with hydroxyurea and 5-azacytidine. Type of data set: cell-based. To be noted: for fetal hemoglobin expression: flow cytometry. The protocol: FIG. 10 depicts the increase in expression of fetal hemoglobin due to 4-(Amino)-2-(2,6-dioxo(3-piperidyl))-isoindoline-1,3-dione over that induced by hydroxyurea or 5-azacytidine. Cells were cultured for six days in the presence of SCF (50 ng/ml) and Epo (2 U/ml), and either DMSO (control), 4-(Amino)-2-(2,6-dioxo(3-piperidyl))-isoindoline-1,3-dione (0.1, 1, 10 μM), 5-azacytidine (0.1, 1 μM; toxic at 10 μM) or hydroxyurea (0.1, 1, 10 μM).
As previously, CD34^+ progenitor cells were first expanded with a combination of growth factors (SCF, Flt3-L and IL-3) for 6 days, and erythroid differentiation was then induced with SCF and Epo for 6 days. During the erythroid differentiation period CD34^+ cells were cultured in the presence or absence of IMiDs™, alone or in combination with either hydroxyurea and 5-azacytidine, in order to compare the effect of IMiDs™ to these two known inducers of fetal hemoglobin synthesis. On day 6 of differentiation, the hemoglobin content of the cells was measured by flow cytometry. […] The induction of fetal hemoglobin production was, however, more pronounced with IMiD in comparison to hydroxyurea or 5-azacytidine, with a 10 fold induction in the presence of 10 μM of 4-(Amino)-2-(2,6-dioxo(3-piperidyl))-isoindoline-1,3-dione.

Data set [3] deals with BM-CD34+ cells. Put plainly: CD34+ cell differentiation with SCF, Flt3-L, GM-CSF and TNFα; microarray gene expression. Type of data set: cell-based. The protocol:
as §1
RNA purification and microarray analysis. Total RNA was isolated from CD34^+ cells using RNAeasy (Qiagen). Affymetrix U133A gene chips were used for gene expression analysis. Briefly, double-stranded cDNA was synthesized using 5 μg of total RNA. Biotin-labeled cRNA was synthesized using MessageAmp aRNA kit (Ambion), 15 μg of cRNA was fragmented and hybridized to each array. The above procedures were done twice for each RNA sample to obtain replicate biotin-labeled probes. The results from the replicate chips were averaged for calculation of the fold differences.

The next data set relates to STAT5. The data set can be described thus: Epo-induced STAT5 phosphorylation in UT-7 cells. Type of data set: cell-based, human. To be noted: 10 μM, 45 min pre-incubation, Epo 10 U/ml for 10 minutes. The text has this:
To further characterize the synergy of Epo and IMiDs™ on erythroid cells, we have performed signaling experiments in a UT-7 cell line, in particular, to determine the effect if IMiDs on the expression of STAT5, which is known to be activated upon the binding Epo to the erythropoietin receptor (EpoR). UT-7 is a human leukemia cell line absolutely dependent upon erythropoietin for proliferation, and was isolated from a patient with acute myeloid leukemia (AML M7). The level of EpoR expression in these cells is around 60%.
To study the role of IMiDs™ in Epo signaling, we stimulated UT-7 cells with Epo in the presence or absence of 4-(Amino)-2-(2,6-dioxo(3-piperidyl))-isoindoline- 1,3-dione as follows. UT-7 cells were expended in RPMI medium with 10% FBS and GM-CSF (5 ng/ml). The cells were serum and growth factor starved overnight, then pre-incubated for 45 minutes with 10 μM of 4-(Amino)-2-(2,6-dioxo(3-piperidyl))-isoindoline-1,3-dione or DMSO control, and stimulated with Epo (10 U/ml) for 10 minutes. 4-(Amino)-2-(2,6-dioxo(3-piperidyl))-isoindoline-1,3-dione increased Epo-induced STAT5 (Tyr694) phosphorylation by 2 fold (FIG. 12). This effect was detected within 10 minutes of stimulation with Epo.

Take `Nc1cccc2c1CN(C1CCC(=O)NC1=O)C2=O` (stereo not shown) [3-(4-amino-1-oxo-1,3-dihydroisoindol-2-yl)-piperidine-2,6-dione]: in the data set with BM-CD34+ progenitors, the “induction of hemoglobin F in erythroid precursors” value was “potent inducers of hemoglobin F”. In addition, in the data set with BM-CD34+ cells [1], the “expression of fetal hemoglobin” value is “increased in a dose-dependent manner” and the “expression of glycophorin A” value is on record as “increased in a dose-dependent manner”. For the same molecule, the “cardiovascular and respiratory changes” value in data set [2] (2, 10 and 20 mg/kg by jugular vein infusion, vs vehicle) was “minimal at all doses”. For the same molecule, in data set [2] (common to control and treated groups), the “deviations in femoral blood flow, respiratory parameters, and Qtc interval” value was “not considered treatment-related”. For the same molecule, the “duration of the arterial blood pressure increase” value in data set [2] (low dose, not seen at higher doses) is given as “approximately 15 minutes”. Further, the arterial blood pressure in data set [2] (low dose, small increase from 94 mmHg) is on record as 101 mmHg.
Regarding `Nc1cccc2c1C(=O)N(C1CCC(=O)NC1=O)C2=O` (stereo not shown) [4-(Amino)-2-(2,6-dioxo(3-piperidyl))-isoindoline-1,3-dione], in the data set with BM-CD34+ progenitors, the “adult hemoglobin (HbA) expression” value is “decrease” and the “induction of hemoglobin F in erythroid precursors” value is listed as “potent inducers of hemoglobin F”. Also, the “cells expressing fetal hemoglobin” value in the data set on BM-CD34+ progenitors (0.001-10 μM, vs DMSO) is listed as “increase”. The “expression of glycophorin A” value with BM-CD34+ progenitors (FACS) was “slight decrease”. Besides, the “induction of fetal hemoglobin production” value with CD34+ progenitor cells (10 μM, day 6 of differentiation) is listed as 10 fold. Besides, the “fetal hemoglobin expression in combination with hydroxyurea” value in the data set with CD34+ progenitor cells (combination with hydroxyurea, six days, SCF and Epo) was “striking synergy”. Moreover, in the data set on BM-CD34+ cells [3] (SCF, Flt3-L, GM-CSF and TNFα), the “expression of genes encoding glycophorin B, rhesus blood group associated glycoprotein, Kell blood group precursor, EDRF/AHSP, erythroid Kruppel-like transcription factor” value is reported as “upregulated” and the “gene expression profile of erythroid-specific genes” value was “upregulated”. In the data set with BM-CD34+ cells [3] (day 6 of CD34+ differentiation, vs DMSO), the “increase of embryonic hemoglobin ε gene expression” value came to 18 fold. For the same molecule, in the data set on BM-CD34+ cells [1], the “expression of fetal hemoglobin” value is listed as “increased in a dose-dependent manner” and the “expression of glycophorin A” value is “increased in a dose-dependent manner”. Besides, in the data set on STAT5, the “increase of Epo-induced STAT5 (Tyr694) phosphorylation” value turned out to be 2 fold.
With `Nc1ncn([C@@H]2O[C@H](CO)[C@@H](O)[C@H]2O)c(=O)n1` [5-azacytidine, reference compound], the “toxicity to cultured CD34+ cells” value in the data set on CD34+ progenitor cells (10 μM) is “toxic”. For the same molecule, the fetal hemoglobin expression result in the data set on CD34+ progenitor cells (day 6 of differentiation) is reported as “increased fetal hemoglobin expression”.
For `NC(=O)NO` [Hydroxyurea, hydroxyurea, reference compound], in the data set on CD34+ progenitor cells (day 6 of differentiation), the fetal hemoglobin expression entry is “increased fetal hemoglobin expression”.
